Patent US4294833A, “Substituted 4-hydroxy-isophthalic acid picolylamides having a pharmaceutical activity in thromboembolic disorders” (Societa Italo-Britannica, priority 1977, dated 1981)

Tests used:
[1] = system: CaCl2-induced plasma coagulation; test: Anticoagulant activity on PRP, Hartert's thromboelastograph; type: in vivo, New Zealand rabbits; details: Oryctolagus cuniculus, ip, percent increase of total time for coagulum formation (r+k) vs before treatment; 25 mg/kg intraperitoneal, rabbits; read-out: anticoagulant activity (AC)
Protocol: Determination of the anticoagulant activity
The anticoagulant activity was also assessed on PRP of animals treated as described in the preceding methods, by using again Hartert's thromboelastograph method.
The plasma coagulation was induced by adding to 0.25 ml PRP a 1.29% solution of CaCl2.
The anticoagulant effect was determined as a percent increase of the total time for the coagulum formation (the index r+k can be obtained from the thromboelastograph diagram) in a plasma after treatment, referred to the same index obtained before the treatment (control). Again the dose level was 25 mg/kg for each compound under examination, intraperitoneally.
(§1) In tables I and II are further indicated for each compound the method of preparation; the melting point PF in °C; the platelet antiaggregant activity (AAP) expressed in terms of DI50 in mg/kg, referred to ADP and thrombin respectively; the antithrombin activity (AT) in %; the anticoagulant activity (AC) in %; the fibrinolytic activity (FL) in %; the acute toxicity (LD50) in mice, intraperitoneally, in mg/kg, as previously defined.

[2] = system: thrombin-induced coagulation of platelet rich plasma; test: Antithrombin activity on PRP, Hartert's thromboelastograph; type: in vivo, New Zealand rabbits; details: Oryctolagus cuniculus, Platelet, ip, percent decrease of index ma/[r+k] vs before treatment; 20 mg/kg intraperitoneal, rabbits
Protocol: Determination of the antithrombin activity
The antithrombin activity on the PRP (platelet rich plasma) obtained following the above described method was assessed by Hartert's thromboelastograph (Hellige model). The coagulation was induced by adding to 0.25 ml of plasma 0.06 ml of a thrombin solution (Roche Topostasin® per os) at 60 units*, pH 7.4**. The antithrombin activity was assessed in terms of a percent decrease of the index (ma/[r+k]) which was calculated from the thromboelastograph diagram, wherein r is the reaction time, k is the speed of the coagulum formation and ma is the maximum spread of the tong, after an intraperitoneal treatment with a dose of 20 mg/kg of each compound under examination, referred to the same index obtained before the treatment (control).
as §1

[3] = system: platelet aggregation induced by thrombin; test: Platelet aggregation inhibitory activity in vivo (Born aggregometer), thrombin-induced; set-up: species or system New Zealand rabbits; details: Oryctolagus cuniculus, Platelet, ip, dose for 50% inhibition of thrombin-induced aggregation curve; rabbits, intraperitoneal, blood 2, 4 and 6 hours after injection; read-out: platelet antiaggregant activity (AAP), DI50, Thrombin
Protocol: (§2) Determination of the platelet aggregation inhibitory activity in vivo
(§3) The activity of the above described compounds as platelet antiaggregant was tested in vivo on rabbits, by the Born aggregometer. The inhibition of the aggregation curve induced by ADP and thrombin was assessed with different drug concentrations according to the platelet reactivity. New Zealand rabbits which had been held fasting for 12 hours with water ad libitum, were anaesthetized with Nembutal in a dose of 35 mg/kg intramuscolarly. The blood was withdrawn from the carotidal arthery, before (control) and 2, 4, and 6 hours after the intraperitoneal injection of the compounds under examination (at the dose indicated below). The blood samples were taken up in a 3.8% aqueous solution of sodium citrate in a ratio 10:1 and thereupon centrifuged at 1500 r.p.m. for 10 minutes, for obtaining a PRP (platelet rich plasma). A portion of such a plasma was thereupon centrifuged at 8000 r.p.m. for 10 minutes, for obtaining a PPP (platelet lean plasma) which was used for zeroing the measuring apparatus.
(§4) From the results of said experiments, there was determined the dose of each product in mg/kg body weight able to induce a 50% inhibition of the aggregation curve (DI50) after treatment, referred to the curve obtained by the same control plasma before treatment.
as §1

[4] = system: platelet aggregation induced by ADP; test: Platelet aggregation inhibitory activity in vivo (Born aggregometer), ADP-induced; set-up: species or system New Zealand rabbits; details: Oryctolagus cuniculus, Platelet, ip, dose for 50% inhibition of ADP-induced aggregation curve; rabbits, intraperitoneal, blood 2, 4 and 6 hours after injection; read-out: platelet antiaggregant activity (AAP), DI50, ADP
Protocol: as §2, §3, §4, §1

blood coagulum = test: Fibrinolytic activity, Fearnley method (lysis of blood coagulum in toto); type: in vivo; details: Oryctolagus cuniculus, ip, 0.5 h, percent decrease of coagulum weight after 30 minutes at 37° C.; 25 mg/kg intraperitoneal, rabbits; read-out: fibrinolytic activity (FL)
Protocol: Determination of the fibrinolytic activity
The determination of the fibrinolytic activity was made following the Fearnley method for the lysis of the blood coagulum in toto.
0.2 ml of blood were withdrawn from the marginal vein of the ear of rabbits treated in the same way as the previously described tests, before and after an intraperitoneal injection of the compounds under test at a dose level of 25 mg/kg for each compound.
The blood samples were placed in test tubes containing 1.7 ml of phosphate buffer at pH 7.4 and 0.1 ml of thrombin (Roche Topostasin ® per os) at 50 units NIH/ml, and maintained in an ice bath. The test tubes were maintained at said temperature for 30 minutes and thereupon were transferred to a temperature controlled water bath at 37° C.
The fibrinolytic activity was determined as a percent decrease of the coagulum weight, measured after incubation for 30 minutes at 37° C.
as §1

[5] = Acute toxicity, intraperitoneal; details: mouse, in vivo, ip, male Swiss mice, intraperitoneal, 7 days observation; preliminary, by graphic interpolation; read-out: acute toxicity (LD50 / DL50)
Protocol: The acute toxicity limit was determined intraperitoneally on male Swiss mice, weighing 20±2 g, held fasting for 18 hours with water ad libitum.
The animals were maintained under observation for 7 days of treatment, by examining the general symptomatology and noting the death sequency. The preliminary DL50 in mg/kg body weight was calculated by graphic interpolation of the results as obtained.
as §1

Compound	change in vivo at 25 mg/kg [1] [%]	inhibition in vivo at 20 mg/kg [2] [%]	ED50 [3] [mg/kg]	ED50 [4] [mg/kg]	fibrinolytic activity (percent decrease of coagulum weight) at 25 mg/kg (blood coagulum) [%]	LD50 at 168 h [5] [mg/kg]
CCC(C)(C)Oc1c(Cl)cc(C(=O)NCc2cccnc2)cc1C(=O)NCc1cccnc1 [Example 29]	20	27.3	30.7	44.1	24.1	206
CCC(CC)Oc1c(Cl)cc(C(=O)NCc2cccnc2)cc1C(=O)NCc1cccnc1 [Example 30]	22.3	27.9	29.5	42.2	25.8	198
O=C(NCc1cccnc1)c1cc(C(=O)NCc2cccnc2)c(O)c([N+](=O)[O-])c1 [Example 31]	13.6	23.1	27	36.6	20.5	345
O=C(NCc1cccnc1)c1cc(Cl)c(O)c(C(=O)NCc2cccnc2)c1 [Example 32]	11.8	22.2	33.6	50.2	17.3	425
COc1cc(C(=O)NCc2cccnc2)cc(C(=O)NCc2cccnc2)c1O [Example 33]	11.2	20.3	38.9	58.4	15.5	570
CC(C)(C)COc1ccc(C(=O)NCc2cccnc2)cc1C(=O)NCc1cccnc1 [Example 34]	13.6	29.7	27.3	35.6	22.7	351
CC(C)(C)COc1c(C(=O)NCc2cccnc2)cc(C(=O)NCc2cccnc2)cc1[N+](=O)[O-] [Example 35]	12.6	25.4	29.7	37.1	20.2	194
C=CCOc1c(C(=O)NCc2cccnc2)cc(C(=O)NCc2cccnc2)cc1[N+](=O)[O-] [Example 36]	11.9	23	27.1	36.3	19.1	267
COc1cc(C(=O)NCc2cccnc2)cc(C(=O)NCc2cccnc2)c1OCC(C)(C)C [Example 37]	14.2	25.5	32	44.6	21.9	378
COc1ccc(C(=O)N(C)Cc2cccnc2)cc1C(=O)N(C)Cc1cccnc1 [Example 39]	12.5	26.6	42	59.8	19.2	610
CCN(Cc1cccnc1)C(=O)c1ccc(OC)c(C(=O)N(CC)Cc2cccnc2)c1 [Example 40]	13.4	28.9	42.3	60.2	20.6	605
CCCN(Cc1cccnc1)C(=O)c1ccc(OC)c(C(=O)N(CCC)Cc2cccnc2)c1 [Example 41]	15.8	26.3	46.5	65.1	22.3	620
CCCCN(Cc1cccnc1)C(=O)c1ccc(OC)c(C(=O)N(CCCC)Cc2cccnc2)c1 [Example 42]	14.5	28.7	47.2	66.4	21.7	623
COc1ccc(C(=O)N(Cc2cccnc2)C(C)C)cc1C(=O)N(Cc1cccnc1)C(C)C [Example 43]	20.7	39.4	20.6	27.3	33.6	478
CCOc1ccc(C(=O)N(Cc2cccnc2)CC(C)C)cc1C(=O)N(Cc1cccnc1)CC(C)C [Example 44]	19.3	38.6	20.9	28.7	32.5	465
CCOc1ccc(C(=O)N(CCC(C)C)Cc2cccnc2)cc1C(=O)N(CCC(C)C)Cc1cccnc1 [Example 45]	16.3	35.8	22.3	30.6	29.9	460
CCOc1ccc(C(=O)N(CCCC(C)C)Cc2cccnc2)cc1C(=O)N(CCCC(C)C)Cc1cccnc1 [Example 46]	15.5	32.7	24.7	34.3	29.1	451
CC=COc1c(Cl)cc(C(=O)N(Cc2cccnc2)C(C)(C)CC)cc1C(=O)N(Cc1cccnc1)C(C)(C)CC [Example 47]	12.8	25.6	36.2	55.8	19.5	210
CC=COc1c(Cl)cc(C(=O)N(Cc2cccnc2)CC(C)(C)C)cc1C(=O)N(Cc1cccnc1)CC(C)(C)C [Example 48]	14.4	27.6	31.9	50.3	20.1	207
CC=COc1c(Cl)cc(C(=O)N(CCC(C)C)Cc2cccnc2)cc1C(=O)N(CCC(C)C)Cc1cccnc1 [Example 49]	15.3	27.9	30.2	49	21.7	193
CC=COc1c(Cl)cc(C(=O)N(Cc2cccnc2)C(CC)CC)cc1C(=O)N(Cc1cccnc1)C(CC)CC [Example 50]	13.8	27.6	33.8	52.2	24.6	198
